Assay results reported in US20030104507A1, “Method for detection of ATP” (priority 2001, published 2003).

What was measured:
[1] = test system: LucPpe2m146; test: Stability of reagent composition with LucPpe2m146 and detergent (RT, pH 7.0); assay type: biochemical, Photuris pennsylvanica
Method in brief: (§1)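 Reagent with 50 μg/ml luciferase, luciferin, MgSO4, buffer and detergent at varying concentrations held at about 23° C; enzyme added just before first read. At timepoints, aliquots mixed 1:1 with media containing ATP and luminescence read immediately (0.5 s/well, triplicate); reaction half-lives and percent of original luminescence derived.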

[2] = molecular target: T1, LucPpy (Photinus pyralis, UniProt P08659); test: Stability of reagent composition with LucPpy and detergent (RT, pH 7.0); assay type: biochemical; settings: for Average Relative Light Units / Percent of Luminescence Remaining: LucPpy
T1 construct: purchased Promega E170A
Method in brief: as §1

Structure (SMILES): CCCCCCCCCCCCOS(=O)(=O)[O-].[Na+] [SDS, Sodium dodecyl sulfate]
- Average Relative Light Units ([1]; LucPpe2m146, 0.002%, 1.0 min (head r67)): 24265.83 rlu
- Percent of Luminescence Remaining ([1]; LucPpe2m146, 0.002%, 1.0 min (times of Table I r67)): 100.00%
- Average Relative Light Units ([1]; LucPpe2m146, 0.002%, 34 min (head r67)): 24213.97 rlu
- Percent of Luminescence Remaining ([1]; LucPpe2m146, 0.002%, 34 min (times of Table I r67)): 99.79%
- Average Relative Light Units ([1]; LucPpe2m146, 0.002%, 65 min (head r67)): 24725.73 rlu
- Percent of Luminescence Remaining ([1]; LucPpe2m146, 0.002%, 65 min (times of Table I r67)): 101.90%
- Average Relative Light Units ([1]; LucPpe2m146, 0.002%, 115 min (head r67)): 22654.87 rlu
- Percent of Luminescence Remaining ([1]; LucPpe2m146, 0.002%, 115 min (times of Table I r67)): 93.36%
- Average Relative Light Units ([1]; LucPpe2m146, 0.002%, 175 min (head r67)): 23856.73 rlu
- Percent of Luminescence Remaining ([1]; LucPpe2m146, 0.002%, 175 min (times of Table I r67)): 98.31%
- Average Relative Light Units ([1]; LucPpe2m146, 0.002%, 238 min (head r67)): 23425.5 rlu
- Percent of Luminescence Remaining ([1]; LucPpe2m146, 0.002%, 238 min (times of Table I r67)): 96.54%
- Average Relative Light Units ([1]; LucPpe2m146, 0.002%, 286 min (head r67)): 23275.6 rlu
- Percent of Luminescence Remaining ([1]; LucPpe2m146, 0.002%, 286 min (times of Table I r67)): 95.92%
- Average Relative Light Units ([1]; LucPpe2m146, 0.01%, 1.0 min (head r54)): 24.46 rlu
- Percent of Luminescence Remaining ([1]; LucPpe2m146, 0.01%, 1.0 min (times of Table I r54)): 100.00%
- Average Relative Light Units ([1]; LucPpe2m146, 0.01%, 34 min (head r54)): 27.85 rlu
- Percent of Luminescence Remaining ([1]; LucPpe2m146, 0.01%, 34 min (times of Table I r54)): 113.85%
- Average Relative Light Units ([1]; LucPpe2m146, 0.01%, 65 min (head r54)): 10.77 rlu
- Percent of Luminescence Remaining ([1]; LucPpe2m146, 0.01%, 65 min (times of Table I r54)): 44.02%
- Average Relative Light Units ([1]; LucPpe2m146, 0.01%, 115 min (head r54)): 6.45 rlu
- Percent of Luminescence Remaining ([1]; LucPpe2m146, 0.01%, 115 min (times of Table I r54)): 26.38%
- Average Relative Light Units ([1]; LucPpe2m146, 0.01%, 175 min (head r54)): 2.02 rlu
- Percent of Luminescence Remaining ([1]; LucPpe2m146, 0.01%, 175 min (times of Table I r54)): 8.25%
- Average Relative Light Units ([1]; LucPpe2m146, 0.01%, 238 min (head r54)): 2.44 rlu
- Percent of Luminescence Remaining ([1]; LucPpe2m146, 0.01%, 238 min (times of Table I r54)): 9.97%
- Average Relative Light Units ([1]; LucPpe2m146, 0.01%, 286 min (head r54)): 0.62 rlu
- Percent of Luminescence Remaining ([1]; LucPpe2m146, 0.01%, 286 min (times of Table I r54)): 2.53%
- Average Relative Light Units ([1]; LucPpe2m146, 0.05%, 15 min (head r41)): 0.018 rlu
- Percent of Luminescence Remaining ([1]; LucPpe2m146, 0.05%, 15 min (times of Table I r41)): 100.00%
- Average Relative Light Units ([1]; LucPpe2m146, 0.05%, 72 min (head r41)): 0.012 rlu
- Percent of Luminescence Remaining ([1]; LucPpe2m146, 0.05%, 72 min (times of Table I r41)): 65.68%
- Average Relative Light Units ([1]; LucPpe2m146, 0.05%, 124 min (head r41)): 0.001 rlu
- Percent of Luminescence Remaining ([1]; LucPpe2m146, 0.05%, 124 min (times of Table I r41)): 6.09%
- Average Relative Light Units ([1]; LucPpe2m146, 0.05%, 190 min (head r41)): 0.006 rlu
- Percent of Luminescence Remaining ([1]; LucPpe2m146, 0.05%, 190 min (times of Table I r41)): 35.06%
- Average Relative Light Units ([1]; LucPpe2m146, 0.05%, 251 min (head r41)): 0.016 rlu
- Percent of Luminescence Remaining ([1]; LucPpe2m146, 0.05%, 251 min (times of Table I r41)): 87.64%
- Half-life of Luminescence Activity ([2]; Common firefly luciferase (P. pyralis), conc. 0.050): no activity
- Average Relative Light Units ([2]; 0.002%, 0.75 min (head r32)): 640.290 rlu
- Percent of Luminescence Remaining ([2]; 0.002%, 0.75 min (times of Table I r32)): 100.00%
- Average Relative Light Units ([2]; 0.002%, 38 min (head r32)): 190.860 rlu
- Percent of Luminescence Remaining ([2]; 0.002%, 38 min (times of Table I r32)): 29.81%
- Average Relative Light Units ([2]; 0.002%, 70 min (head r32)): 84.210 rlu
- Percent of Luminescence Remaining ([2]; 0.002%, 70 min (times of Table I r32)): 13.15%
- Average Relative Light Units ([2]; 0.002%, 94 min (head r32)): 47.210 rlu
- Percent of Luminescence Remaining ([2]; 0.002%, 94 min (times of Table I r32)): 7.37%
- Average Relative Light Units ([2]; 0.002%, 122 min (head r32)): 25.630 rlu
- Percent of Luminescence Remaining ([2]; 0.002%, 122 min (times of Table I r32)): 4.0%
- Average Relative Light Units ([2]; 0.01%, 0.75 min (head r18)): 0.175 rlu
- Average Relative Light Units ([2]; 0.01%, 0.75 min (head r32)): 17.584 rlu
- Percent of Luminescence Remaining ([2]; 0.01%, 0.75 min (times of Table I r18)): 100.00%
- Average Relative Light Units ([2]; 0.01%, 10 min (head r18)): 0.016 rlu
- Percent of Luminescence Remaining ([2]; 0.01%, 10 min (times of Table I r18)): 9.14%
- Average Relative Light Units ([2]; 0.01%, 38 min (head r32)): 0.001 rlu
- Average Relative Light Units ([2]; 0.05%, 0.75 min (head r5)): 0.007 rlu
- Percent of Luminescence Remaining ([2]; 0.05%, 0.75 min (times of Table I r5)): 100.00%
